Literature values in EP3639895A1, “METHOD OF REDUCING PERSPIRATION” (priority 2018, dated 2020).

System: Staphylococcus epidermidis
Details: 80% or greater reduction in growth of inoculum over 16 to 24 hours at 37°C

| Compound | minimum inhibitory concentration (MIC) |
| --- | --- |
| CCO [ethanol] | greater than 1 mg.ml^-1 |
| CC(C)=CCCC(C)=CCCC(C)=CCO [farnesol, 3,7,11-trimethyldodeca-2,6,10-trienol] | ca. 25 µg.ml^-1 |
| Oc1cc(Cl)ccc1Oc1ccc(Cl)cc1Cl [triclosan, 2',4,4'-trichloro,2-hydroxy-diphenyl ether] | 0.01 to 10 µg/mL |
